Measured values from patent US20240207240A1, “Method for Improving or Treating Cognitive Dysfunction Complicating HIV-associated Cryptococcal Meningitis with Lenalidomide” (The First Affiliated Hospital Zhejiang University School of …, priority 2022, published 2024).
“And” between values parts separate entries of the source, which are not always exact repeats. Equal entries are not always repeated. Where two headings read alike, the source gives them in different places.

Tests used:
[1] = system: patients with cognitive dysfunction caused by HIV-associated CM-IRIS; assay type: in vivo, human; conditions: for ΔIHDS: week 24 - week 0, median
[2] = system: intracranial inflammation (CSF WBC, protein, albumin, IgG, glucose, chlorine, pressure); assay: CSF routine and biochemistry analysis; assay type: in vivo, human; conditions: for Chlorine-W 24 / Protein-W 24 / WBC-W 24 / Glucose-W23 / Δ Protein / ΔChlorine / ΔGlucose / ΔWBC: CSF; for Glucose-W23: after treatment; for Δ Protein / ΔChlorine / ΔGlucose / ΔWBC / ΔICP: week 24 - week 0, median
CSF cytokines = assay: Detection of inflammatory cytokines in CSF (Human Cytokine/Chemokine/Growth Factor Panel A); assay type: in vivo
Method: Detection of inflammatory cytokines in CSF: CSF samples were collected from the participants and centrifuged immediately; and the supernatant was stored at −80° C. until testing. 32 CSF cytokines were analyzed using the Human Cytokine/Chemokine/Growth Factor Panel A (Merck Millipore, St. Louis, USA): α-2-macroglobulin (α-2-M), apolipoprotein A-I (apoA-I), Apo-E, complement C3, complement factor H (CFH), fibroblast growth factor 2 (FGF-2), granulocyte-colony stimulating factor (G-CSF), granulocyte-macrophage colony-stimulating factor (GM-CSF), interferon-γ (IFN-γ), growth-regulated oncogene (GRO), soluble CD40 ligand (sCD40L), platelet-derived growth factor-AA (PDGF-AA), interleukin (IL)-12p40, IL-12p70, IL-13, IL-1α, IL-1β, IL-2, IL-3, IL-4, IL-6, IL-8, IL-10, IL-17α, monocyte chemoattractant protein-1 (MCP-1), macrophage inflammatory protein-la (MIP-la), MIP-1β, tumor necrosis factor-a (TNF-α), IL-17α, amyloid-β (1-42) (αβ42), total Tau (tTau) and phosphorylated Tau 181 (pTau181), The abbreviations of CSF cytokines are provided in Table 3.

[3] = individual Patients 1-4 (cognitive improvement group)
[4] = individual Patients 5-7 (cognitive non-improvement group)
[5] = W 24, after 6 cycles lenalidomide, individual patients P1-P4 (cognitive improvement group)

Nc1cccc2c1CN(C1CCC(=O)NC1=O)C2=O (stereo not shown) [lenalidomide]
median IHDS score ([1]; W24, after 6 cycles lenalidomide, 7 patients, baseline 9.0 (2.5-10.5), P=0.028): 11.0 (10.0-12.0)
recall of the four items in the IHDS ([1]; W24, baseline 1.5 (1.0-3.5), P=0.042): 4.0 (2.0-4.0)
IHDS-W 24 [1, 3]: 10 scores (2×) and 11 scores and 12 scores
IHDS-W 24 [1, 4]: 12 scores (2×) and 10 scores
ΔIHDS ([1]; CI group): 5.25 scores
ΔIHDS ([1]; CNI group): 1.5 scores
change in CSF WBC after lenalidomide treatment ([2]; CI group, P=0.032): significant decline
change in CSF albumin after lenalidomide treatment ([2]; CI group, P=0.034): significant decline
change in CSF protein after lenalidomide treatment ([2]; CI group, P=0.034): significant decline
change in CSF IgG levels after lenalidomide treatment ([2]; CI group, P=0.050): significant decline
Chlorine-W 24 [2, 3]: 128 mmol/L (2×) and 131 mmol/L and 121 mmol/L
Protein-W 24 [2, 3]: 1.081 g/L and 1.24 g/L and 0.745 g/L and 0.788 g/L
WBC-W 24 [2, 3]: 2 ×106/L (2×) and 10 ×106/L and 0 ×106/L
Chlorine-W 24 [2, 4]: 123 mmol/L (2×) and 127 mmol/L
Protein-W 24 [2, 4]: 0.37 g/L and 0.908 g/L and 1.15 g/L
WBC-W 24 [2, 4]: 1e+06 L⁻¹ and 1e+07 L⁻¹ and 7e+06 L⁻¹
Glucose-W23 [2, 3]: 2.4 mmol/L and 2.5 mmol/L and 3.6 mmol/L and 2.6 mmol/L
Glucose-W23 [2, 4]: 4.7 mmol/L and 2.4 mmol/L and 2.8 mmol/L
Δ Protein ([2]; CI group): -4.4 g/L
ΔChlorine ([2]; CI group): 2.0 mmol/L
ΔGlucose ([2]; CI group): 0.4 mmol/L
ΔWBC ([2]; CI group): -1.18e+08 L⁻¹
Δ Protein ([2]; CNI group): 0.3 g/L
ΔChlorine ([2]; CNI group): -4.0 mmol/L
ΔGlucose ([2]; CNI group): -0.3 mmol/L
ΔWBC ([2]; CNI group): 7e+06 L⁻¹
ICP-W 24 [2, 3]: 120 mmH2O and 152 mmH2O and 150 mmH2O and 85 mmH2O
ICP-W 24 [2, 4]: 200 mmH2O and 120 mmH2O and 95 mmH2O
ΔICP ([2]; CI group): 10.0 mmH2O
ΔICP ([2]; CNI group): −20.0 mmH2O
change in CSF G-CSF level after treatment (CSF cytokines; CI group, P<0.001): significant decline
change in CSF GRO level after treatment (CSF cytokines; CI group, P<0.001): significant decline
change in CSF IL-6 level after treatment (CSF cytokines; CI group, P<0.001): significant decline
change in CSF IL-8 level after treatment (CSF cytokines; CI group, P<0.001): significant decline
change in CSF IL-10 level after treatment (CSF cytokines; CI group, P<0.001): significant decline
change in CSF CFH level after treatment (CSF cytokines; CI group, P=0.002): significant decline
change in CSF TNF-α level after treatment (CSF cytokines; CI group, P=0.002): significant decline
change in CSF α-2-M level after treatment (CSF cytokines; CI group, P=0.003): significant decline
change in CSF tTau level after treatment (CSF cytokines; CNI group, P=0.030): increased significantly
CSF Apo. E (CSF cytokines; [5]): 5683 pg/mL and 1764 pg/mL and 2487 pg/mL and 1873 pg/mL
CSF CFH (CSF cytokines; [5]): 4617 pg/mL and 2381 pg/mL and 2275 pg/mL and 1603 pg/mL
CSF Complement C3 (CSF cytokines; [5]): 10475 pg/mL and 4010 pg/mL and 818.22 pg/mL and 1909 pg/mL
CSF FGF-2 (CSF cytokines; [5]): 16.08 pg/mL
CSF G-CSF (CSF cytokines; [5]): 22.02 pg/mL and 3.57 pg/mL (2×) and 5.99 pg/mL
CSF GM-CSF (CSF cytokines; [5]): 0.98 pg/mL and 1.02 pg/mL and 1.94 pg/mL and 2.81 pg/mL
CSF GRO (CSF cytokines; [5]): 111.65 pg/mL and 63.2 pg/mL and 32 pg/mL and 149.74 pg/mL
CSF IFN-γ (CSF cytokines; [5]): 1.31 pg/mL and 0.7 pg/mL and 0.66 pg/mL and 1.6 pg/mL
CSF IL-1α (CSF cytokines; [5]): 1.91 pg/mL and 1.71 pg/mL and 1.65 pg/mL and 1.37 pg/mL
CSF IL-1β (CSF cytokines; [5]): 1.15 pg/mL and 1.09 pg/mL and 0.88 pg/mL and 1.11 pg/mL
CSF IL-2 (CSF cytokines; [5]): 0.72 pg/mL and 0.69 pg/mL and 0.64 pg/mL and 0.81 pg/mL
CSF IL-3 (CSF cytokines; [5]): 0.41 pg/mL and 0.44 pg/mL and 0.43 pg/mL and 0.34 pg/mL
CSF IL-4 (CSF cytokines; [5]): 1.49 pg/mL and 2.22 pg/mL and 0.82 pg/mL (2×)
